Assays:
SIRT2 = biological target: T1, SIRT2 (Homo sapiens, UniProt Q8IXJ6); assay: SIRT2 deacetylase activity against H3K9ac peptide; assay type: biochemical
T1 sequence (Q8IXJ6 1-389): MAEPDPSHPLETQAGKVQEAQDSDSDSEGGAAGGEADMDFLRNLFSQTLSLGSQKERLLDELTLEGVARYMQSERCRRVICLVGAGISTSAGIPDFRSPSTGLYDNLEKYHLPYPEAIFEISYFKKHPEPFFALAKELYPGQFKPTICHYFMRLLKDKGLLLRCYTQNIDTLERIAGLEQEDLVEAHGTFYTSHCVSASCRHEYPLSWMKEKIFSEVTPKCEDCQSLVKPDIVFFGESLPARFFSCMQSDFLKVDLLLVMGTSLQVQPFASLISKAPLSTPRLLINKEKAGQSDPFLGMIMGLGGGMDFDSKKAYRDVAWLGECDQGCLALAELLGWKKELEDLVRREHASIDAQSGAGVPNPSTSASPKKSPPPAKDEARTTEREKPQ
Protocol: FIGS. 1A-F illustrate the identification of novel SIRT6 activators. (1A) Compound libraries BML-2803, BML-2800, and an additional set of 178 molecules were screened at 100 μM for their ability to stimulate SIRT6 (1 μM) deacetylation of H3K9ac peptide (20 μM) in the presence of 0.5 mM NAD^+. SIRT6 activity was measured by HPLC quantification of H3K9ac and deacetylated product (inset) and fold activations relative to DMSO control were determined and compiled. (1B) Fold-activation of SIRT6 (1 μM) determined in the presence of either 0-400 μM CL4, 0-150 μM TTNPB, 0-100 μM Lysophosphatidic acid (LPA), or 0-200 μM linoleoylglycine (LGly). Maximum fold-activation and EC50 determined by sigmoidal curve fit. […] Constants Km, H3K9ac and kcat were determined by fitting data to Michaelis-Menten equation. (1D) Fold-activations of SIRT1 (0.1 μM), SIRT2 (0.2 μM), SIRT3 (1 μM), SIRT5 (2 μM), and SIRT6 (1 μM) determined in the presence of CL4 (100 μM), TTNPB (50 μM), and LPA (50 μM) relative to DMSO control against 20 μM H3K9ac peptide and 0.5 mM NAD^+. […]
All sirtuin deacylation assays were carried out at 37° C. in 20 mM potassium phosphate pH 7.5 with 0.5 mM NAD^+, 10% DMSO, and 20 μM H3K9ac or H3K9myr peptides, unless otherwise noted in legend, and quenched by the addition of 2% TFA final. […] The product and substrate peaks were quantified and ratio of these allowed for quantification of product formation. […]

[1] = Micelle formation with fluorescent membrane probe diphenylhexatriene (DPH); assay type: physicochemical
SIRT6 = SIRT6 (Homo sapiens, UniProt Q8N6T7); assay: SIRT6 deacetylation of H3K9ac peptide, fold-activation versus activator concentration; assay type: biochemical; settings: for EC50: H3K9ac peptide 20 μM
SIRT6, sequence (Q8N6T7 whole entry): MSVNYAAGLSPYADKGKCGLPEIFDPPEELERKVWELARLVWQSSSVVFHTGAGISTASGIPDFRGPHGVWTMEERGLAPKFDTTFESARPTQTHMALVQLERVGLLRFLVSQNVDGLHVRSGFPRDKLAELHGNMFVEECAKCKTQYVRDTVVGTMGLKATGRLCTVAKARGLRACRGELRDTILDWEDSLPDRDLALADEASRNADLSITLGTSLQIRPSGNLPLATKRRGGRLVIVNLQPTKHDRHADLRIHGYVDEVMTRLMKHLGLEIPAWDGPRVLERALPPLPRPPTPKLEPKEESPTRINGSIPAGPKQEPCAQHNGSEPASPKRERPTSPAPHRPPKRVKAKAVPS
Protocol: (1A) Compound libraries BML-2803, BML-2800, and an additional set of 178 molecules were screened at 100 μM for their ability to stimulate SIRT6 (1 μM) deacetylation of H3K9ac peptide (20 μM) in the presence of 0.5 mM NAD^+. SIRT6 activity was measured by HPLC quantification of H3K9ac and deacetylated product (inset) and fold activations relative to DMSO control were determined and compiled. (1B) Fold-activation of SIRT6 (1 μM) determined in the presence of either 0-400 μM CL4, 0-150 μM TTNPB, 0-100 μM Lysophosphatidic acid (LPA), or 0-200 μM linoleoylglycine (LGly). Maximum fold-activation and EC50 determined by sigmoidal curve fit. (1C) Steady-state kinetic analysis of SIRT6 (1 μM) deacetylation was conducted with 0-250 μM H3K9ac peptide in the presence of 100 μM CL4, 50 μM TTNPB, 50 μM LPA, or 50 μM LGly. Constants Km, H3K9ac and kcat were determined by fitting data to Michaelis-Menten equation. (1D) Fold-activations of SIRT1 (0.1 μM), SIRT2 (0.2 μM), SIRT3 (1 μM), SIRT5 (2 μM), and SIRT6 (1 μM) determined in the presence of CL4 (100 μM), TTNPB (50 μM), and LPA (50 μM) relative to DMSO control against 20 μM H3K9ac peptide and 0.5 mM NAD^+. Mean values reported with error bars representing standard deviation of at least three replicates.
All sirtuin deacylation assays were carried out at 37° C. in 20 mM potassium phosphate pH 7.5 with 0.5 mM NAD^+, 10% DMSO, and 20 μM H3K9ac or H3K9myr peptides, unless otherwise noted in legend, and quenched by the addition of 2% TFA final. Steady-state reactions were constrained to less than 20% substrate turnover to prevent product inhibition. A variety of times were required to monitor SIRT6 deacetylation (2-60 minutes) under this restraint given the ability to strongly activate catalysis. In these cases, specific activities were determined and either reported as is or as fold-activation of specific activity. Deacylation reactions were analyzed by reversed phase high-performance liquid chromatography on a Kinetex C18 column (100 Å, 100×4.6 mm, 2.6 μm, Phenomenex) by monitoring the formation of the deacylated product at 214 nm. Deacetylation reactions were analyzed using a gradient of 33-100% B (30% acetonitrile with 0.05% TFA) in 8 min at 1.6 mL min^−1. Demyristoylation reactions were analyzed using a gradient of 3 to 100% B (acetonitrile with 0.05% TFA) in 10 min at 1.6 mL min^−1. The product and substrate peaks were quantified and ratio of these allowed for quantification of product formation. […]

[2] = SIRT6 1 μM, 0.5 mM NAD+, sigmoidal curve fit

specificity for SIRT6 over SIRT2 (SIRT2; CL4 100 μM, TTNPB 50 μM, LPA 50 μM)	micelle formation (in words) [1]	concentration required to stimulate 4-fold activation of SIRT6 (SIRT6; SIRT6 1 μM, H3K9ac 20 μM, 0.5 mM NAD+)	EC50 (SIRT6; [2])	concentration at which micelle formation was observed [1]	FAmax (maximum fold-activation) (SIRT6; SIRT6 1 μM, sigmoidal curve fit)	SIRT2 deacetylase activity at high activator concentration (SIRT2; 400 μM compound)	SIRT6 deacetylase activity at high activator concentration (SIRT6; 400 μM compound)	increased potency over CL-4 (SIRT6; by concentration required for 4-fold activation of SIRT6 deacetylase activity)	Structure (SMILES)
greater than 19 fold	not observed to form micelles	35 µM	97 ± 2 µM	–	–	–	–	–	O=C(O)c1ccc2c(c1)C(=O)N(c1ccc(NC(=O)c3ccc(Cl)cc3Cl)c(Cl)c1)C2=O [CL-4, 2-(3-chloro-4-(2,4-dichlorobenzamido)phenyl)-1,3-dioxoisoindoline-5-carboxylic acid]
–	–	–	88 ± 4 µM	> 300 µM	17 ± 0.8 fold	–	–	–	CCCCC/C=C\C/C=C\CCCCCCCC(=O)NCC(=O)O [N-Linoleoylglycine, linoleoyl-glycine, reference compound]
–	–	–	–	–	–	inhibited	inhibited	7 fold	O=C(O)c1ccc2c(c1)C(=O)N(c1ccc(N(C(=O)c3c(Cl)cc(Cl)cc3Cl)C(=O)c3c(Cl)cc(Cl)cc3Cl)c(Cl)c1)C2=O [CL-5D, 2-(3-chloro-4-(2,4,6-trichloro-N-(2,4,6-trichlorobenzoyl)benzamido)phenyl)-1,3-dioxoisoindoline-5-carboxylic acid]

Source: US12390447B2, “Sirtuin 6 protein deacylase (SIRT6) activators” (Wisconsin Alumni Research Foundation, priority 2019, dated 2025)
